Source: patent US12415770B2, “Modulators of liver receptor homologue 1 (LRH-1) and uses” (Emory University, priority 2017, dated 2025)

How the values were obtained:
LRH-1 = target: T1, LRH-1 (Homo sapiens, UniProt O00482); test: Luciferase reporter assay (SHP-luc) in HeLa cells transfected with full-length LRH-1; assay type: cell-based; conditions: for EC50 (μM) / EC50: HeLa cells, SHP-luc reporter, 24 hours, 0.03-30 μM; for Relative Efficacy: fold increase over baseline (DMSO-treated cells) relative to the fold increase induced by RJW100
T1 construct: The transfected plasmids included full-length LRH-1 in a pCI vector; expressed in transfected cells; host or cells: HeLa
Method: EC50 and Relative Activity values were calculated from luciferase reporter assays.

LRH-1 LBD = target: T2, LRH-1 LBD (Homo sapiens, UniProt O00482); test: Thermofluor (DSF) assay, purified LRH-1 LBD-His protein; assay type: binding; conditions: 50 μM compound, relative to DLPC-bound LRH-1; for ΔTm at 50 µM: read-out: ΔTm (mean +/− SEM) (° C.)
T2 construct: LRH-1 LBD (residues 299-541) in the pMSC7 vector was expressed in BL21 (DE3) pLysS E. coli; made in house; host or cells: E. coli BL21 (DE3) pLysS
Method: Thermofluor assays—Purified LRH-1 LBD-His protein (0.2 mg/ml) was incubated overnight with 50 μM of each compound at 4° C. The final DMSO concentration in the reactions was 1%. SYPRO orange dye (Invitrogen) was then added at a 1:1000 dilution. Reactions were heated at a rate of 0.5° C. per minute, using a StepOne Plus Real Time PCR System (ThermoFisher). […] Data were analyzed by first subtracting baseline fluorescence (ligands+SYPRO with no protein) and then fitting the curves using the Bolzman equation (GraphPad Prism, v6) to determine the Tm. […]

T2 sequence (O00482 299-541): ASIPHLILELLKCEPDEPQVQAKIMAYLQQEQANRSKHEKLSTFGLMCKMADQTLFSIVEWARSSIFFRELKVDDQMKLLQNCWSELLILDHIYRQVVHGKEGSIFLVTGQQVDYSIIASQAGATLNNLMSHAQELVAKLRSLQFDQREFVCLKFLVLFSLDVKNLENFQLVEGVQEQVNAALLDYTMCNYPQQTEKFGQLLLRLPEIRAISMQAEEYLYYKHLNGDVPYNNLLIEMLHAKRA
T1 sequence (O00482 whole entry): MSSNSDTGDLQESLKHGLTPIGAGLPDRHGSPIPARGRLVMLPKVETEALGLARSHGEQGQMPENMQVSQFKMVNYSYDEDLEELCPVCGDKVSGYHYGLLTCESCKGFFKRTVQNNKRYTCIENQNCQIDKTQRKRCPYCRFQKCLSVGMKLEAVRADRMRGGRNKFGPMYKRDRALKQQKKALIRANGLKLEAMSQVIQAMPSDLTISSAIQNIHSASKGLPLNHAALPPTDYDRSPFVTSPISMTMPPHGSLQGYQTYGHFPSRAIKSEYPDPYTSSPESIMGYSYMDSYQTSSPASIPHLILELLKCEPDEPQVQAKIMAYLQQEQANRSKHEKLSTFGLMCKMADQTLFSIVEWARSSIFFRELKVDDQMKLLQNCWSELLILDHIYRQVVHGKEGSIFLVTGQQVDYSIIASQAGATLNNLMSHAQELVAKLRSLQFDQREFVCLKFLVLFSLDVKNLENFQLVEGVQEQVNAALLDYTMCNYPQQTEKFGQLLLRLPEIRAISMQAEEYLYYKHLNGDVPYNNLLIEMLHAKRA

| SMILES | EC50 (μM) (LRH-1) | Relative Efficacy (LRH-1) | ΔTm at 50 µM (LRH-1 LBD) [°C] | EC50 (LRH-1) [nM] | ΔTm (mean +/− SEM) (° C.) (LRH-1 LBD) |
| --- | --- | --- | --- | --- | --- |
| C=C(c1ccccc1OC)[C@@]12CC[C@@H](O)C1CC(CCCCCC)=C2c1ccccc1 (mixture of isomers) [Compound 22, (Exo)-5-hexyl-3a-(1-(2-methoxyphenyl)vinyl)-4-phenyl-1,2,3,3a,6,6a-hexahydropentalen-1-ol] | cnc | 0.42 | < 1 |  |  |
| C=C(c1ccccc1)C12CCC(C#N)C1CC(CCCCCC)=C2c1ccccc1 (stereo not drawn) [Compound 32-endo, (Endo or Exo)-5-hexyl-4-phenyl-3a-(1-phenylvinyl)-1,2,3,3a,6,6a-hexahydropentalene-1-carbonitrile] |  | 0 |  |  | ns (Ns = Tm changes were less than 1° C.) |
| C=C(c1ccccc1)C12CCC(O)C1CC(CCCCCCOP(=O)([O-])OCC[N+](C)(C)C)=C2c1ccccc1 (stereo not drawn) [Compound 7g, 6-(6-exo-hydroxy-3-phenyl-3a-(1-phenylvinyl)-1,3a,4,5,6,6a-hexahydropentalen-2-yl)hexyl(2-(trimethylammonio)ethyl) phosphate] | cnc | 0.00 | < 1 |  |  |
| CCCCCCC1=C(c2ccccc2)[C@]2(C(C)c3ccccc3)CC[C@H](O)C2C1 (stereo partly drawn) [Compound 39-endo, (Endo or Exo)-5-hexyl-4-phenyl-3a-(1-phenylethyl)-1,2,3,3a,6,6a-hexahydropentalen-1-ol] |  | 0.13 | 0.4 |  |  |
| C=C(c1ccccc1)C12CCC(O)C1CC(CCCCCO)=C2c1ccccc1 (stereo not drawn) [Compound 6e, Exo-5-(5-hydroxypentyl)-4-phenyl-3a-(1-phenylvinyl)-1,2,3,3a,6,6a-hexahydropentalen-1-ol] | cnc | 1.57 | 2.4 |  |  |
| C=C(c1ccccc1)[C@@]12CC[C@@H](O)[C@@H]1CC(CCCCO)=C2c1ccccc1 (relative stereo) [Compound 5e, Exo-5-(4-hydroxybutyl)-4-phenyl-3a-(1-phenylvinyl)-1,2,3,3a,6,6a-hexahydropentalen-1-ol] |  | 0.83 | 3.1 | 1400 |  |
| C=C(c1ccccc1)[C@@]12CC[C@@H](OC(N)=O)C1CC(CCCCCC)=C2c1ccccc1 (stereo partly drawn) [Compound 29-exo, (Endo or Exo)-5-hexyl-4-phenyl-3a-(1-phenylvinyl)-1,2,3,3a,6,6a-hexahydropentalen-1-yl carbamate] | cnc | 0.14 | 1.54 |  |  |
| C=C(c1ccccc1)[C@@]12CC[C@@H](N=[N+]=[N-])C1CC(CCCCCC)=C2c1ccccc1 (stereo partly drawn) [Compound 31-exo, (Endo or Exo)-5-hexyl-4-phenyl-3a-(1-phenylvinyl)-1,2,3,3a,6,6a-hexahydropentalen-1-azide] |  | 0.45 | < 1 | 2000 |  |
| C=C(c1ccccc1)[C@@]12CC[C@@H](O)[C@@H]1CC(CCCCCCCO)=C2c1ccccc1 (relative stereo) [Compound 8e, Exo-5-(7-hydroxyheptyl)-4-phenyl-3a-(1-phenylvinyl)-1,2,3,3a,6,6a-hexahydropentalen-1-ol] |  | 1.26 | 3.7 | 200 |  |
| C=C(c1ccccc1)[C@@]12CC[C@@H](OC(=O)NS(=O)(=O)O)C1CC(CCCCCC)=C2c1ccccc1 (stereo partly drawn) [Compound 40-exo, ((((endo or exo)-5-hexyl-4-phenyl-3a-(1-phenylvinyl)-1,2,3,3a, 6,6a-hexahydropentalen-1-yl)oxy)carbonyl)sulfamic acid] |  | 0 |  | > 30000 |  |
| C=C(c1ccccc1)[C@@]12CC[C@@H](NC(N)=O)C1CC(CCCCCC)=C2c1ccccc1 (stereo partly drawn) [Compound 36-exo, 1-((endo or exo)-5-hexyl-4-phenyl-3a-(1-phenylvinyl)-1,2,3,3a, 6,6a-hexahydropentalen-1-yl) urea] |  |  | -1.4 |  |  |
| C=C(c1ccccc1)[C@@]12CC[C@@H](OS(N)(=O)=O)C1CC(CCCCCC)=C2c1ccccc1 (stereo partly drawn) [Compound 28-exo, (Endo or Exo)-5-hexyl-4-phenyl-3a-(1-phenylvinyl)-1,2,3,3a,6,6a-hexahydropentalen-1-yl sulfamate] |  |  | 5.1 |  |  |
| C=C(c1ccccc1F)[C@@]12CC[C@@H](O)C1CC(CCCCCC)=C2c1ccccc1 (mixture of isomers) [Compound 20, (Exo)-3a-(1-(2-fluorophenyl)vinyl)-5-hexyl-4-phenyl-1,2,3,3a,6,6a-hexahydropentalen-1-ol] |  |  | 1.4 |  |  |
| C=C(c1ccccc1)[C@@]12CC[C@H](NC(C)=O)C1CC(CCCCCC)=C2c1ccccc1 (stereo partly drawn) [Compound 35-endo, N-((endo or exo)-5-hexyl-4-phenyl-3a-(1-phenylvinyl)-1,2,3,3a,6,6a-hexahydropentalen-1-yl) acetamide] |  |  | 0.4 |  |  |
| C=C(c1ccccc1)[C@@]12CC[C@H](OS(N)(=O)=O)C1CC(CCCCCC)=C2c1ccccc1 (stereo partly drawn) [Compound 28-endo, (Endo or Exo)-5-hexyl-4-phenyl-3a-(1-phenylvinyl)-1,2,3,3a,6,6a-hexahydropentalen-1-yl sulfamate] |  |  | 8 |  |  |
| C=C(c1ccccc1)C12CC(O)C(O)C1CC(CCCCCC)=C2c1ccccc1 (stereo not shown) [Compound 52, 5-hexyl-4-phenyl-3a-(1-phenylvinyl)-1,2,3,3a,6,6a-hexahydropentalene-1,2-diol] |  | −0.25 |  | 10 |  |
| C=C(c1ccccc1)[C@@]12CC[C@H](NC(N)=O)C1CC(CCCCCC)=C2c1ccccc1 (stereo partly drawn) [Compound 36-endo, 1-((endo or exo)-5-hexyl-4-phenyl-3a-(1-phenylvinyl)-1,2,3,3a, 6,6a-hexahydropentalen-1-yl) urea] |  |  | 1.1 |  |  |
| C=C(c1ccccc1)C12CC(O)C(CN)C1CC(CCCCCC)=C2c1ccccc1 (stereo not shown) [Compound 51, 3-(aminomethyl)-5-hexyl-6-phenyl-6a-(1-phenylvinyl)-1,2,3,3a,4,6a-hexahydropentalen-2-ol] | cnc | 0.65 |  |  |  |
| C=C(c1ccccc1C)[C@@]12CC[C@@H](O)C1CC(CCCCCC)=C2c1ccccc1 (mixture of isomers) [Compound 21, (Exo)-5-hexyl-4-phenyl-3a-(1-(o-tolyl)vinyl)-1,2,3,3a,6,6a-hexahydropentalen-1-ol] |  |  | 1.3 |  |  |
| C=C(c1ccccc1)C12CCC(CN)C1CC(CCCCCC)=C2c1ccccc1 (stereo not drawn) [Compound 48-endo, (endo or exo) (5-hexyl-4-phenyl-3a-(1-phenylvinyl)-1,2,3,3a,6,6a-hexahydropentalen-1-10 yl)methanamine] |  |  | 0 |  |  |

Now from value to compound, other results behind:

| EC50 (μM) (LRH-1) | Relative Efficacy (LRH-1) | ΔTm at 50 µM (LRH-1 LBD) [°C] | EC50 (LRH-1) [nM] | SMILES | ΔTm (mean +/− SEM) (° C.) (LRH-1 LBD) |
| --- | --- | --- | --- | --- | --- |
| cnc | 0.70 | < 1 |  | C=C(c1ccccc1)[C@@]12CC[C@@H](O)C1CC(CCCCCC)=C2c1cccc(N)c1 (mixture of isomers) [Compound 15g, (Exo)-4-(3-aminophenyl)-5-hexyl-3a-(1-phenylvinyl)-1,2,3,3a,6,6a-hexahydropentalen-1-ol] |  |
|  | 0.87 | 4.7 | 2000 | C=C(c1ccccc1)C12CCC(O)C1CC(CCCCCCCCCCCO)=C2c1ccccc1 (stereo not drawn) [Compound 12e, Exo-5-(11-hydroxyundecyl)-4-phenyl-3a-(1-phenylvinyl)-1,2,3,3a,6,6a-hexahydropentalen-1-ol] |  |
|  | 3.8 | < 1 | 24000 | C=C(c1ccccc1)[C@@]12CC[C@@H](O)C1CC(CCCCCC)=C2c1cc(N)ccc1F (mixture of isomers) [Compound 16g, (Exo)-4-(5-amino-2-fluorophenyl)-5-hexyl-3a-(1-phenylvinyl)-1,2,3,3a,6,6a-hexahydropentalen-1-ol] |  |
|  |  | -1.9 |  | C=C(c1ccccc1)[C@@]12CC[C@@H](O)C1CC(CCCCCC)=C2c1cc(O)ccc1C (mixture of isomers) [Compound 17f, (Exo)-5-hexyl-4-(5-hydroxy-2-methylphenyl)-3a-(1-phenylvinyl)-1,2,3,3a,6,6a-hexahydropentalen-1-ol] |  |
|  | 0.96 |  | 12000 | C=C(c1ccccc1)C12CCC(O)C1CC(CCCCCCCC(=O)N1CCC(COP(=O)([O-])OCC[N+](C)(C)C)C1)=C2c1ccccc1 [Compound 13b, ((3R)-1-(8-(6-(exo)-hydroxy-3-phenyl-3a-(1-phenylvinyl)-1,3a,4,5,6,6a-hexahydropentalen-2-yl)octanoyl)pyrrolidin-3-yl)methyl (2-(trimethylammonio)ethyl)phosphate] |  |
| cnc | 0.06 |  |  | C=C(c1ccc(Br)cc1)[C@@]12CC[C@@H](O)C1CC(CCCCCC)=C2c1ccccc1 (mixture of isomers) [Compound 23a, (Exo)-3a-(1-(4-bromophenyl)vinyl)-5-hexyl-4-phenyl-1,2,3,3a,6,6a-hexahydropentalen-1-ol] |  |
|  | 3.35 |  | 17000 | C=C(c1ccccc1)[C@@]12CC[C@@H](O)[C@@H]1CC(CCCCCCCC(=O)OC[C@H](COP(=O)([O-])OCC[N+](C)(C)C)OC(=O)CC)=C2c1ccccc1 [Compound 14d, (2R)-3-((8-(6-(exo)-hydroxy-3-phenyl-3a-(1-phenylvinyl)-1,3a,4,5,6,6a-hexahydropentalen-2-yl)octanoyl)oxy)-2-(propionyloxy) propyl(2-(trimethylammonio)ethyl) phosphate] |  |
